Measurements reported in the NIST ThermoML archive (doi:10.1021/je400255c).
± gives the expanded uncertainty stated by the source.

Key:
[1] = Molar enthalpy of transition or fusion; conditions: DSC
[2] = DTA

Molar enthalpy of transition or fusion ([1]; Crystal 1): 2.76 ± 0.0478 kcal/mol
Molar enthalpy of transition or fusion ([1]; Crystal 2): 0.153 ± 0.00239 kcal/mol
Normal melting temperature ([2]; Crystal 1): 168.70 ± 1.5 °C
Triple point temperature ([2]; Crystal 2): 412.65 ± 1 K
Structure (SMILES): O=C[O-].[K+] [potassium formate]
